{"source": "PubChem BioAssay (NCI)", "assay_in_all_cases": "NCI anticancer screen, dose series, 384-well format", "key": {"[1]": {"tested_on": "MOLT-4 leukemia"}, "[2]": {"tested_on": "KM12 colon"}, "[3]": {"tested_on": "CCRF-CEM leukemia"}, "[4]": {"tested_on": "DU-145 prostate"}, "[5]": {"tested_on": "786-0 renal"}, "[6]": {"tested_on": "SN12C renal"}, "[7]": {"tested_on": "TK-10 renal"}, "[8]": {"tested_on": "HOP-92 NSCLC"}, "[9]": {"tested_on": "MDA-MB-435 melanoma"}, "[10]": {"tested_on": "NCI-H322M lung"}, "[11]": {"tested_on": "SF-268 CNS"}, "[12]": {"tested_on": "NCI/ADR-RES ovarian"}, "[13]": {"tested_on": "HCT-15 colon"}, "[14]": {"tested_on": "NCI-H522 lung"}, "[15]": {"tested_on": "NCI-H23 lung"}, "[16]": {"tested_on": "HL-60(TB) leukemia"}, "[17]": {"tested_on": "COLO 205 colon"}, "[18]": {"tested_on": "EKVX NSCLC"}, "[19]": {"tested_on": "K-562 leukemia"}, "[20]": {"tested_on": "SNB-19 CNS"}, "[21]": {"tested_on": "HS 578T breast"}, "[22]": {"tested_on": "UO-31 renal"}, "[23]": {"tested_on": "CAKI-1 renal"}, "[24]": {"tested_on": "SNB-75 CNS"}, "[25]": {"tested_on": "SF-539 CNS"}, "[26]": {"tested_on": "SW-620 colon"}, "[27]": {"tested_on": "RXF 393 renal"}, "[28]": {"tested_on": "IGROV1 ovarian"}, "[29]": {"tested_on": "NCI-H460 NSCLC"}}, "note": "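GI50 = concentration required for 50% inhibition of growth. Definition used: TGI = concentration required for complete inhibition of growth.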", "data": [{"smiles": "C[C@@H]1COCCN1c1nc(-c2cnc(N)cc2C(F)F)nc(N2[C@H](C)COC[C@@H]2C)n1", "values": [{"measurement": "TGI", "setting": "[1]", "result": 0.508, "unit": "µM"}, {"measurement": "GI50", "setting": "[2]", "result": 0.144, "unit": "µM"}, {"measurement": "TGI", "setting": "[2]", "result": 3.09, "unit": "µM"}, {"measurement": "GI50", "setting": "[3]", "result": 0.106, "unit": "µM"}, {"measurement": "TGI", "setting": "[3]", "result": 1.05, "unit": "µM"}, {"measurement": "GI50", "setting": "[4]", "result": 0.143, "unit": "µM"}, {"measurement": "TGI", "setting": "[4]", "result": 10.4, "unit": "µM"}, {"measurement": "GI50", "setting": "[5]", "result": 0.116, "unit": "µM"}, {"measurement": "TGI", "setting": "[5]", "result": 2.78, "unit": "µM"}, {"measurement": "GI50", "setting": "[6]", "result": 0.0959, "unit": "µM"}, {"measurement": "TGI", "setting": "[6]", "result": 10.9, "unit": "µM"}, {"measurement": "GI50", "setting": "[7]", "result": 0.232, "unit": "µM"}, {"measurement": "TGI", "setting": "[7]", "result": 4.55, "unit": "µM"}, {"measurement": "GI50", "setting": "[8]", "result": 0.0849, "unit": "µM"}, {"measurement": "TGI", "setting": "[8]", "result": 1.57, "unit": "µM"}, {"measurement": "GI50", "setting": "[9]", "result": 0.208, "unit": "µM"}, {"measurement": "TGI", "setting": "[9]", "result": 2.57, "unit": "µM"}, {"measurement": "GI50", "setting": "[10]", "result": 0.0957, "unit": "µM"}, {"measurement": "TGI", "setting": "[10]", "result": 2.97, "unit": "µM"}, {"measurement": "GI50", "setting": "[11]", "result": 0.228, "unit": "µM"}, {"measurement": "TGI", "setting": "[11]", "result": 7.71, "unit": "µM"}, {"measurement": "GI50", "setting": "[12]", "result": 0.291, "unit": "µM"}, {"measurement": "TGI", "setting": "[12]", "result": 6.44, "unit": "µM"}, {"measurement": "GI50", "setting": "[13]", "result": 0.059, "unit": "µM"}, {"measurement": "TGI", "setting": "[13]", "result": 1.33, "unit": "µM"}, {"measurement": "GI50", "setting": "[14]", "result": 0.128, "unit": "µM"}, {"measurement": "TGI", "setting": "[14]", "result": 1.4, "unit": "µM"}, {"measurement": "GI50", "setting": "[15]", "result": 0.264, "unit": "µM"}, {"measurement": "TGI", "setting": "[15]", "result": 2.6, "unit": "µM"}, {"measurement": "GI50", "setting": "[16]", "result": 0.466, "unit": "µM"}, {"measurement": "TGI", "setting": "[16]", "result": 1.66, "unit": "µM"}, {"measurement": "GI50", "setting": "[17]", "result": 0.152, "unit": "µM"}, {"measurement": "TGI", "setting": "[17]", "result": 3.48, "unit": "µM"}, {"measurement": "GI50", "setting": "[18]", "result": 0.122, "unit": "µM"}, {"measurement": "TGI", "setting": "[18]", "result": 1.08, "unit": "µM"}, {"measurement": "GI50", "setting": "[19]", "result": 0.211, "unit": "µM"}, {"measurement": "TGI", "setting": "[19]", "result": 1.78, "unit": "µM"}, {"measurement": "GI50", "setting": "[20]", "result": 0.711, "unit": "µM"}, {"measurement": "TGI", "setting": "[20]", "result": 16.1, "unit": "µM"}, {"measurement": "GI50", "setting": "[21]", "result": 0.0405, "unit": "µM"}, {"measurement": "TGI", "setting": "[21]", "result": 0.269, "unit": "µM"}, {"measurement": "GI50", "setting": "[22]", "result": 0.29, "unit": "µM"}, {"measurement": "TGI", "setting": "[22]", "result": 16.3, "unit": "µM"}, {"measurement": "GI50", "setting": "[23]", "result": 0.123, "unit": "µM"}, {"measurement": "TGI", "setting": "[23]", "result": 4.84, "unit": "µM"}, {"measurement": "GI50", "setting": "[24]", "result": 0.0549, "unit": "µM"}, {"measurement": "TGI", "setting": "[24]", "result": 2.1, "unit": "µM"}, {"measurement": "GI50", "setting": "[25]", "result": 0.116, "unit": "µM"}, {"measurement": "TGI", "setting": "[25]", "result": 2.45, "unit": "µM"}, {"measurement": "GI50", "setting": "[26]", "result": 0.319, "unit": "µM"}, {"measurement": "TGI", "setting": "[26]", "result": 11.5, "unit": "µM"}, {"measurement": "GI50", "setting": "[27]", "result": 0.0732, "unit": "µM"}, {"measurement": "TGI", "setting": "[27]", "result": 4.44, "unit": "µM"}, {"measurement": "GI50", "setting": "[28]", "result": 0.036, "unit": "µM"}, {"measurement": "TGI", "setting": "[28]", "result": 0.238, "unit": "µM"}, {"measurement": "GI50", "setting": "[29]", "result": 0.0382, "unit": "µM"}, {"measurement": "TGI", "setting": "[29]", "result": 1.51, "unit": "µM"}]}]}
